From ChEMBL document CHEMBL1123376, “3-(1H-tetrazol-5-yl)-4(3H)-quinazolinone sodium salt (MDL 427): a new antiallergic agent” (1986)

Columns and labels:
Assay type in all cases: functional
Rattus norvegicus [1] = test: Compound was evaluated in rat PCA(passive cutaneous anaphylaxis) test administered intravenously.; details: iv
Rattus norvegicus [2] = test: Compound was evaluated in rat PCA (passive cutaneous anaphylaxis) test administered at 100 mg/kg orally and the inhibition of PCA due to inhibition of IgE mediated release was determined; details: for inhibition in vivo at 100 mg/kg: Rattus norvegicus, po
Rattus norvegicus [3] = test: Evaluated in rat PCA (passive cutaneous anaphylaxis) test administered at 60 mg/kg ip and the inhibition of PCA due to inhibition of IgE mediated release was determined; details: route intraperitoneal; for inhibition in vivo at 60 mg/kg: Rattus norvegicus, ip
Rattus norvegicus [4] = test: Compound was evaluated in rat PCA (passive cutaneous anaphylaxis) test administered intravenously; details: iv

SMILES | inhibition in vivo at 60 mg/kg (Rattus norvegicus [3]) [%] | further results
O.O=c1c2ccccc2ncn1-c1nnn[n-]1.[Na+] |  | ED50 (Rattus norvegicus [1]): 0.2 mg/kg; Inhibition (Rattus norvegicus [2]; route oral): 97%; Inhibition (Rattus norvegicus [3]): 93%
O=c1c2ccccc2ncn1-c1nnn[nH]1 | 100 | inhibition in vivo at 100 mg/kg (Rattus norvegicus [2]): 89%
O=c1c2cc3c(cc2ncn1-c1nn[nH]n1)OCO3 | 90 | 
O=c1c2ccccc2ncn1-n1cnnc1 | 0 | 
O=c1c2ccccc2ncn1-c1cc[nH]n1 | 5 | 
O=CNc1ccccc1C(=O)Nc1nn[nH]n1 | 89 | inhibition in vivo at 100 mg/kg (Rattus norvegicus [2]): 91%
Cc1cccc2c(=O)n(-c3nn[nH]n3)cnc12 | 64 | 
Cc1nc2ccccc2c(=O)n1-c1nn[nH]n1 | 22 | 
COc1cccc2c(=O)n(-c3nn[nH]n3)cnc12 | 44 | 
O=c1c2ccccc2ncn1-c1nc[nH]n1 | 75 | 
O=c1c2cc(Cl)ccc2ncn1-c1nn[nH]n1 | 89 | 
CCc1nc2ccccc2c(=O)n1-c1nn[nH]n1 | 41 | 
O=c1c2ccccc2nc(-c2ccccc2)n1-c1nn[nH]n1 | 27 | 
Nc1ccccc1C(=O)Nc1nn[nH]n1 | 59 | inhibition in vivo at 100 mg/kg (Rattus norvegicus [2]): 7%; ED50 (Rattus norvegicus [4]): 10.5 mg/kg
Cc1cccc2ncn(-c3nn[nH]n3)c(=O)c12 | 80 | 
Cc1ccc2ncn(-c3nn[nH]n3)c(=O)c2c1 | 100 | 
O=C([O-])c1cc(=O)c2c(OCC(O)COc3cccc4oc(C(=O)[O-])cc(=O)c34)cccc2o1.[Na+].[Na+] [CROMOLYN SODIUM] | 100 | inhibition in vivo at 100 mg/kg (Rattus norvegicus [2]): 0%; ED50 (Rattus norvegicus [4]): 0.7 mg/kg
